Results on 35 compounds are retold here after ChEMBL document CHEMBL5370531, “Design, synthesis and pharmacological evaluation of 2,3-dihydrobenzofuran IRAK4 inhibitors for the treatment of diffuse large B-cell lymphoma” (Eur J Med Chem, 2023).

In data set [1] the target is T1, Interleukin-1 receptor-associated kinase 4 (Homo sapiens, UniProt Q9NWZ3).
T1 sequence (Q9NWZ3 whole entry): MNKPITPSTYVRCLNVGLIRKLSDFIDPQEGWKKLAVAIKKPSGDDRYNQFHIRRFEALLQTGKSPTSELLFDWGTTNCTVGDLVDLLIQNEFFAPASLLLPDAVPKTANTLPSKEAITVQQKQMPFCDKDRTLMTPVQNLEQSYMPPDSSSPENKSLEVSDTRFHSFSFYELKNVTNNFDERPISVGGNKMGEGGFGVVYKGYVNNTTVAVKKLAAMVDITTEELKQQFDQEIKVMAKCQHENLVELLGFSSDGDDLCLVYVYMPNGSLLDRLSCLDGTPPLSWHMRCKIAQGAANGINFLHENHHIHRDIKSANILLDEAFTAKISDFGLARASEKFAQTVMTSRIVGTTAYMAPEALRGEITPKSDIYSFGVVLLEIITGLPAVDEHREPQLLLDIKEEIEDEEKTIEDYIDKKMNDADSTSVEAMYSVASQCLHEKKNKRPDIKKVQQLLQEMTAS
In words: Inhibition of IRAK4 (unknown origin) by Z-LYTE enzymatic kinase assay.

A further data set relates to OCI-Ly10. In words: Cytotoxicity against human OCILY10 cells assessed as inhibition of cell proliferation incubated for 72 hrs by CCK-8 assay. In kind it is functional, cell-based. The settings on record: OCI-Ly10, 72 h. A general note: Formazan colour is commonly taken as a measure of viable cells.
The nature of data set [2]: Cytotoxicity against human GM00637 cells assessed as inhibition of cell proliferation incubated for 72 hrs by CCK-8 assay. In kind it is toxicity, cell-based.
For another data set, the system named is U2932. In words: Cytotoxicity against human U2932 cells assessed as inhibition of cell proliferation incubated for 72 hrs by CCK-8 assay. As to conditions: U2932, 72 h. In kind it is functional, cell-based.

In general, IC50 refers to the concentration needed to halve the response being measured. In data set [1], `CC1(C)Cc2cc(NC(=O)c3coc(-c4ccnc(N)c4)n3)c(N3CCC(O)CC3)cc2O1` showed an IC50 of 32.7 nM. In data set [1], `CC1(C)Cc2cc(NC(=O)c3coc(-c4ccnc(N)c4)n3)c(-c3ccc(C(F)(F)F)nc3)cc2O1` returned an IC50 of 25.3 nM. `CC1(C)Cc2cc(NC(=O)c3coc(-c4ccnc(N)c4)n3)c(-c3ccnc(C(F)(F)F)c3)cc2O1` gave an IC50 in data set [1] greater than 100 nM. `CC1(C)Cc2cc(NC(=O)c3cccc(-c4ccnc(N)c4)n3)c(N3CCC(CO)CC3)cc2O1`: in data set [1], the IC50 is greater than 100 nM. `Cc1cc(-c2nc(C(=O)Nc3cc4c(cc3N3CCC(CO)CC3)OC(C)(C)C4)co2)ccn1` came in with a 50% inhibitory concentration (IC50) in data set [1] greater than 100 nM. In data set [1], `CC1(C)Cc2cc(NC(=O)c3coc(N4CC[C@@H](N)C4)n3)c(N3CCC(CO)CC3)cc2O1` gave a 50% inhibitory concentration (IC50) of 65.9 nM. Same read-out and setting: under `CC1(C)Cc2cc(NC(=O)c3coc(-c4ccncc4)n3)c(N3CCC(CO)CC3)cc2O1` stands 22.1 nM; under `COc1ccc(-c2cc3c(cc2NC(=O)c2coc(-c4ccnc(N)c4)n2)CC(C)(C)O3)cn1`, 26.8 nM. For the compound `CC1(C)Cc2cc(NC(=O)c3cnn4cccnc34)c(N3CCC(CO)CC3)cc2O1`, the results for the half-inhibitory concentration (IC50) (in data set [1]; with OCI-Ly10) were 2.9 nM and 12400 nM, respectively.

For `CC1(C)Cc2cc(NC(=O)c3cccc(-c4ccc(N)nc4)n3)c(N3CCC(CO)CC3)cc2O1`, in data set [1], the half-maximal inhibitory concentration (IC50) is greater than 100 nM. In the case of `Cc1ncc(-c2cc3c(cc2NC(=O)c2coc(-c4ccnc(N)c4)n2)CC(C)(C)O3)cn1`, the IC50 at 72 h in data set [2] was greater than 50000 nM. Moreover, the results for the half-maximal inhibitory concentration (IC50) (in the data set on U2932; in data set [1]; in the data set on OCI-Ly10) were 5180 nM, 14 nM and 823 nM, respectively. Compound `Cn1cc(-c2cccc(C(=O)Nc3cc4c(cc3N3CCC(CO)CC3)OC(C)(C)C4)n2)cn1` registered a half-maximal inhibitory concentration (IC50) in data set [1] of 73.8 nM. `CC1(C)Cc2cc(NC(=O)c3coc(-c4ccnc(N)c4)n3)c(-c3ccc(C#N)nc3)cc2O1` gave an IC50 in data set [1] of 42.1 nM. Regarding `CC1(C)Cc2cc(NC(=O)c3cnn4cccnc34)c(N3CCOCC3)cc2O1`, in data set [1], 6.1 nM corresponded to half-maximal inhibition (IC50). `COc1cc(-c2cc3c(cc2NC(=O)c2coc(-c4ccnc(N)c4)n2)CC(C)(C)O3)ccn1`: the half-inhibitory concentration (IC50) in data set [1] was 22.8 nM. Compound `CC1(C)Cc2cc(NC(=O)c3cccc(N4CC[C@@H](N)C4)n3)c(N3CCC(CO)CC3)cc2O1` showed an IC50 in data set [1] greater than 100 nM. For the compound `CC1(C)Cc2cc(NC(=O)c3coc(-c4ccnc(N)c4)n3)c(N3CCC(CO)CC3)cc2O1`, the IC50 turned out to be 2.1 nM in data set [1] and 336 nM with OCI-Ly10. `CC(=O)Nc1cc(-c2nc(C(=O)Nc3cc4c(cc3N3CCC(CO)CC3)OC(C)(C)C4)co2)ccn1` gave an IC50 in data set [1] of 62.7 nM.

In data set [1], `CC(C)n1cc(-c2cc3c(cc2NC(=O)c2coc(-c4ccnc(N)c4)n2)CC(C)(C)O3)cn1` had a half-maximal inhibitory concentration (IC50) of 24.7 nM. `CCn1cc(-c2cc3c(cc2NC(=O)c2coc(-c4ccnc(N)c4)n2)CC(C)(C)O3)cn1` returned a half-maximal inhibitory concentration (IC50) in data set [1] of 18.5 nM. Still for that read-out and setting: the same measure for `Cc1cc(-c2cc3c(cc2NC(=O)c2coc(-c4ccnc(N)c4)n2)CC(C)(C)O3)ccn1`: 30.3 nM. In the case of `CC1(C)Cc2cc(NC(=O)c3coc(-c4ccnc(N)c4)n3)c(N3CCOCC3)cc2O1`, in data set [2], the IC50 at 72 h stood at 312 nM. For the same compound, the values for the IC50 (in the data set on U2932; in data set [1]; in the data set with OCI-Ly10) were 181 nM, 2.6 nM and 109 nM, respectively.

In the case of `CC1(C)Cc2cc(NC(=O)c3coc(-c4ccnc(N)c4)n3)c(N3CCN(CC(N)=O)CC3)cc2O1`, in data set [1], half-maximal inhibition (IC50) was put at 11.6 nM.

Consider `CC1(C)Cc2cc(NC(=O)c3coc(N4CCC[C@@H](N)C4)n3)c(N3CCC(CO)CC3)cc2O1`, for which, in data set [1], the IC50 is greater than 100 nM. Same read-out and setting: under `CC1(C)Cc2cc(NC(=O)c3coc(-c4ccnc(N)c4)n3)c(-c3ccnc(C#N)c3)cc2O1` stands greater than 100 nM.

On to `Cc1ccc(-c2cc3c(cc2NC(=O)c2coc(-c4ccnc(N)c4)n2)CC(C)(C)O3)cn1`, for which, in data set [2], the IC50 at 72 h is greater than 50000 nM. In addition, the IC50 in the data set on U2932 is greater than 50000 nM; in data set [1] it was 12.8 nM; in the data set with OCI-Ly10, 3160 nM. For the compound `CC1(C)Cc2cc(NC(=O)c3cccc(N4CCC[C@@H](N)C4)n3)c(N3CCC(CO)CC3)cc2O1`, the half-maximal inhibitory concentration (IC50) in data set [1] is greater than 100 nM. The same measure, in the same setting: under `Cc1cc(-c2cc3c(cc2NC(=O)c2coc(-c4ccnc(N)c4)n2)CC(C)(C)O3)cc(C)n1` stands greater than 100 nM; under `CC1(C)Cc2cc(NC(=O)c3coc(-c4ccnc(N)c4)n3)c(N3CCN(CCO)CC3)cc2O1`, 7.4 nM.

For the compound `CC1(C)Cc2cc(NC(=O)c3coc(-c4ccnc(N)c4)n3)c(-c3cncnc3)cc2O1`, the IC50 at 72 h in data set [2] came out at 4630 nM. Also, the IC50 in the data set with U2932 came out at 2090 nM; in data set [1] it was 12.7 nM; in the data set on OCI-Ly10, 669 nM.

In data set [1], `Cc1noc(C)c1-c1cc2c(cc1NC(=O)c1coc(-c3ccnc(N)c3)n1)CC(C)(C)O2` had an IC50 greater than 100 nM.

In the case of `CC1(C)Cc2cc(NC(=O)c3coc(-c4ccnc(N)c4)n3)c(-c3ccoc3)cc2O1`, in data set [2], the IC50 at 72 h is greater than 50000 nM. The half-inhibitory concentration (IC50) with U2932 stood at 2450 nM; in data set [1], 10.2 nM; with OCI-Ly10 it was 401 nM. Take `CC1(C)Cc2cc(NC(=O)c3coc(-c4ccnc(N)c4)n3)c(N3CCC(C(N)=O)CC3)cc2O1`: the IC50 in data set [1] came to 28.5 nM. Take `CC1(C)Cc2cc(NC(=O)c3coc(-c4ccnc(N)c4)n3)c(N3CCC(C(C)(C)O)CC3)cc2O1`: in data set [1], the IC50 turned out to be 60.9 nM.

As for `CC1(C)Cc2cc(NC(=O)c3coc(-c4ccnc(N)c4)n3)c(N3CCC(CN)CC3)cc2O1`, in data set [1], it took 14 nM to reach half-maximal inhibition (IC50).
